Drawing on publication PMC9459959, “Synthesis and Activity of 2-Acyl-cyclohexane-1,3-dione Congeners Derived from Peperomia Natural Products against the Plant p-Hydroxyphenylpyruvate Dioxygenase Herbicidal Molecular Target Site” (Plants, 2022), this text covers IC50 for 67 compounds.

Where two headings read alike, the source gives them in different places. Some results are limits rather than exact numbers.

This assay has as its target T1, HPPD (p-hydroxyphenylpyruvate dioxygenase) (Arabidopsis thaliana, UniProt P93836).
T1 construct: gene HPD; recombinant, overexpressed in E. coli, tested in total soluble protein extract; 1SP9 given only as docking structure
T1 sequence (P93836 1-445): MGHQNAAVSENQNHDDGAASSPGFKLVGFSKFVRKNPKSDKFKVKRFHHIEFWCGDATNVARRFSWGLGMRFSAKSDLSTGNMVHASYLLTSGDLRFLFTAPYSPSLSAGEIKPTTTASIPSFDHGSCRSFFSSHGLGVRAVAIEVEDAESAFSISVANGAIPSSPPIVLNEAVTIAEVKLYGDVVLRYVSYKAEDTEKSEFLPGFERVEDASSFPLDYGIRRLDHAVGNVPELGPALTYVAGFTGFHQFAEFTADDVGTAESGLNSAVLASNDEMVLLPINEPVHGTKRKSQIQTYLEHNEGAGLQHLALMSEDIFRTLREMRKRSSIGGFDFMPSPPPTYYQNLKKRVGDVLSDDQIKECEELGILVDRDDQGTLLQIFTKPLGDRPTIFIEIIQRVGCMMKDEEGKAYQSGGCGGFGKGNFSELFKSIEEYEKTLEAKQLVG
As to the kind of experiment: HPLC of homogentisate formed ([…] nm), dose-response. It is filed as biochemical.

As to `COc1cccc(CCC(=O)C2C(=O)CC(C)(C)CC2=O)c1` [10d], the IC50 (read-out: I50 (μM) ^ab) was found to be 1.5 ± 0.17 µM.

For the compound `CC1(C)CC(=O)C(C(=O)CCc2ccc(Cl)cc2)C(=O)C1` [16d], the IC50 (read-out: I50 (μM) ^ab) was 2.05 ± 0.19 µM.

In the case of `CCCCCC(=O)C1C(=O)CC(C)(C)CC1=O` [3e], the IC50 (read-out: I50 (μM) ^ab) was determined as 4.17 ± 0.45 µM.

As for `CN(C)c1ccc(CCC(=O)C2C(=O)CC(C)(C)CC2=O)cc1` [15d], the IC50 (read-out: I50 (μM) ^ab) came out at 3.46 ± 0.64 µM.

For the compound `Cc1ccccc1CCC(=O)C1C(=O)CCCC1=O` [9b], the IC50 (read-out: I50 (μM) ^ab) came to 0.97 ± 0.09 µM.

Regarding `CCCCCCCCCC(=O)C1C(=O)CC(C)(C)CC1=O` [4e], for the setting “read-out: I50 (μM) ^ab”, the IC50 turned out to be 2.66 ± 0.95 µM.

Regarding `CCCCCCCCCCCc1noc2c1C(=O)CCC2` [5a], for the setting “read-out: I50 (μM) ^ab”, the IC50 is more than 100 µM.

`Cc1noc2c1C(=O)C(O)CC2` (stereo not shown) [1c]: the IC50 (read-out: I50 (μM) ^ab) was more than 100 µM.

Regarding `CCCCCCCCCC(=O)C1=C(O)C(O)CCC1=O` (stereo not shown) [4d], for the setting “read-out: I50 (μM) ^ab”, the IC50 turned out to be 1.25 ± 0.4 µM.

As for `O=C(C=Cc1ccccc1)C1C(=O)CCCC1=O` [8a], the IC50 (read-out: I50 (μM) ^ab) amounted to 5.43 ± 0.58 µM.

`Cc1noc2c1C(=O)C(O)C(C)(C)C2` (stereo not shown) [1g]: the IC50 (read-out: I50 (μM) ^ab) was more than 100 µM.

As to `CC(=O)CCCC(=O)C1C(=O)CC(C)(C)CC1=O` [7b], the IC50 (read-out: I50 (μM) ^ab) stood at 17.2 ± 2.6 µM.

`CC1(C)CC(=O)C(C(=O)CCc2ccccc2)C(=O)C1` [8e]: under “read-out: I50 (μM) ^ab”, the IC50 is 2.17 ± 0.37 µM.

Consider `COc1ccc(C=CC(=O)C2C(=O)CCCC2=O)cc1OC` [12a], for which, under “read-out: I50 (μM) ^ab”, the IC50 was 9.16 ± 1.21 µM.

Take `COc1cc(C=CC(=O)C2C(=O)CC(C)(C)CC2=O)cc(OC)c1OC` [14c]: under “read-out: I50 (μM) ^ab”, the IC50 was determined as 2.22 ± 0.5 µM.

On to `COc1ccc(CCC(=O)C2C(=O)CCCC2=O)cc1OC` [12b], for which, for the setting “read-out: I50 (μM) ^ab”, the IC50 was determined as 1.35 ± 0.18 µM.

With `CC(=O)C1C(=O)CCCC1=O` [1b], where the note is “read-out: I50 (μM) ^ab”, the IC50 was 23.1 ± 4.34 µM.

For `CCCCCCCCCc1noc2c1C(=O)CCC2` [4a], the IC50 (read-out: I50 (μM) ^ab) was more than 100 µM.

`CN(C)c1ccc(CCC(=O)C2C(=O)CCCC2=O)cc1` [15b]: where the note is “read-out: I50 (μM) ^ab”, the IC50 stood at 4.47 ± 0.51 µM.

For the compound `CCCCCCCCCCCc1noc2c1C(=O)C(O)CC2` (stereo not shown) [5c], for the setting “read-out: I50 (μM) ^ab”, the IC50 was more than 100 µM.

As to `COc1ccc(C=CC(=O)C2C(=O)CCCC2=O)cc1` [11a], under “read-out: I50 (μM) ^ab”, the IC50 is 12.3 ± 1.6 µM.

Consider `COc1ccc(CCC(=O)C2C(=O)CCCC2=O)cc1` [11b], for which, under “read-out: I50 (μM) ^ab”, the IC50 is 2.36 ± 0.3 µM.

Take `CCCCCCCCCCCCCCCCC(=O)C1C(=O)CC(C)(C)CC1=O` [6b]: the IC50 (read-out: I50 (μM) ^ab) is 1.7 ± 0.31 µM.

As to `CCCCCC(=O)C1=C(O)C(O)CCC1=O` (stereo not shown) [3d], where the note is “read-out: I50 (μM) ^ab”, the IC50 amounted to 15.8 ± 4.9 µM.

`O=C1CCCC(=O)C1C(=O)CCc1ccc(Cl)cc1` [16b]: the IC50 (read-out: I50 (μM) ^ab) stood at 0.24 ± 0.02 µM.

On to `CCCCCCCCCC(=O)C1C(=O)CCCC1=O` [4b], for which, where the note is “read-out: I50 (μM) ^ab”, the IC50 is 0.46 ± 0.06 µM.

Turning to `CC(=O)C1C(=O)CC(C)(C)CC1=O` [1f], the IC50 (read-out: I50 (μM) ^ab) was found to be 53.1 ± 17.1 µM.

Turning to `CCCCCc1noc2c1C(=O)C(O)CC2` (stereo not shown) [3c], the IC50 (read-out: I50 (μM) ^ab) is more than 100 µM.

In the case of `COc1ccc(C=CC(=O)C2C(=O)CC(C)(C)CC2=O)cc1` [11d], the IC50 (read-out: I50 (μM) ^ab) was found to be 141 ± 27 µM.

For `CC1(C)CC(=O)C(C(=O)C=Cc2ccc([N+](=O)[O-])cc2)C(=O)C1` [19b], the IC50 (read-out: I50 (μM) ^ab) came out at 27.5 ± 2.39 µM.

`O=C(C=Cc1ccc([N+](=O)[O-])cc1)C1C(=O)CCCC1=O` [19a]: the IC50 (read-out: I50 (μM) ^ab) was determined as 7.61 ± 0.89 µM.

In the case of `CCCC(=O)C1C(=O)CCCC1=O` [2a], under “read-out: I50 (μM) ^ab”, the IC50 worked out at 35.1 ± 6.24 µM.

Regarding `Cc1noc2c1C(=O)CC(C)(C)C2` [1e], the IC50 (read-out: I50 (μM) ^ab) is more than 100 µM.

On to `COc1ccc(C=CC(=O)C2C(=O)CC(C)(C)CC2=O)cc1OC` [12c], for which the IC50 (read-out: I50 (μM) ^ab) is 14.1 ± 2.21 µM.

Regarding `CCCCCCCCCCCc1noc2c1C(=O)C(O)C(C)(C)C2` (stereo not shown) [5g], the IC50 (read-out: I50 (μM) ^ab) is more than 100 µM.

With `CC(=O)C1=C(O)C(O)C(C)(C)CC1=O` (stereo not shown) [1h], the IC50 (read-out: I50 (μM) ^ab) stood at 166 ± 19.7 µM.

For the compound `O=C(C=Cc1ccc(Br)cc1)C1C(=O)CCCC1=O` [17a], the IC50 (read-out: I50 (μM) ^ab) was found to be 7.55 ± 0.93 µM.

`Cc1ccccc1C=CC(=O)C1C(=O)CCCC1=O` [9a]: the IC50 (read-out: I50 (μM) ^ab) came out at 1.2 ± 0.14 µM.

Consider `COc1cccc(C=CC(=O)C2C(=O)CCCC2=O)c1` [10a], for which the IC50 (read-out: I50 (μM) ^ab) amounted to 0.89 ± 0.1 µM.

On to `COc1ccc(CCC(=O)C2=C(O)C(O)CCC2=O)cc1` (stereo not shown) [11c], for which the IC50 (read-out: I50 (μM) ^ab) amounted to 59.5 ± 11.8 µM.

Take `COc1ccc(CCC(=O)C2C(=O)CC(C)(C)CC2=O)cc1` [11e]: under “read-out: I50 (μM) ^ab”, the IC50 worked out at 12.9 ± 2.18 µM.

Turning to `Cc1noc2c1C(=O)CCC2` [1a], the IC50 (read-out: I50 (μM) ^ab) is more than 100 µM.

As to `CCCCCCCCCCCC(=O)C1C(=O)CCCC1=O` [5b], the IC50 (read-out: I50 (μM) ^ab) is 0.3 ± 0.03 µM.

On to `O=C(C=Cc1cccc(Br)c1)C1C(=O)CCCC1=O` [18a], for which, for the setting “read-out: I50 (μM) ^ab”, the IC50 is 0.82 ± 0.08 µM.

With `O=C(/C=C/c1ccc(Br)cc1)C1=C(O)C(O)CCC1=O` (stereo not shown) [17b], the IC50 (read-out: I50 (μM) ^ab) came out at 28.7 ± 4.82 µM.

Turning to `CCCCCCCCCCCc1noc2c1C(=O)CC(C)(C)C2` [5e], where the note is “read-out: I50 (μM) ^ab”, the IC50 is more than 100 µM.

Take `CS(=O)(=O)c1ccc(C(=O)C2C(=O)CCCC2=O)c(Cl)c1` [sulcotrione, reference compound]: under “15 min incubation, slow tight-binding class, E. coli total soluble protein extract, positive control, read-out: I50app”, the IC50 worked out at 0.25 ± 0.02 µM.

Take `CC(=O)CCCC(=O)C1C(=O)CCCC1=O` [7a]: under “read-out: I50 (μM) ^ab”, the IC50 was determined as 9.6 ± 1.4 µM.

Regarding `CC1(C)CC(=O)C(C(=O)C=Cc2ccc(Br)cc2)C(=O)C1` [17c], under “read-out: I50 (μM) ^ab”, the IC50 worked out at 8.34 ± 1.57 µM.

With `CCCCCCCCCCCCCCCCC(=O)C1C(=O)CCCC1=O` [6a], the IC50 (read-out: I50 (μM) ^ab) came to 1.58 ± 0.2 µM.

For `COc1cc(CCC(=O)C2C(=O)CC(C)(C)CC2=O)cc(OC)c1OC` [14d], under “read-out: I50 (μM) ^ab”, the IC50 stood at 2.29 ± 0.25 µM.

As for `COc1ccc(CCC(=O)C2C(=O)CC(C)(C)CC2=O)cc1OC` [12d], the IC50 (read-out: I50 (μM) ^ab) is 8.69 ± 1.32 µM.

On to `CCCCCc1noc2c1C(=O)CCC2` [3a], for which the IC50 (read-out: I50 (μM) ^ab) is more than 100 µM.

On to `COc1cccc(CCC(=O)C2C(=O)CCCC2=O)c1` [10b], for which the IC50 (read-out: I50 (μM) ^ab) is 0.31 ± 0.04 µM.

Take `CCCCCCCCCc1noc2c1C(=O)C(O)CC2` (stereo not shown) [4c]: the IC50 (read-out: I50 (μM) ^ab) was more than 100 µM.

In the case of `CC1(C)CC(=O)C(C(=O)C=Cc2ccccc2)C(=O)C1` [8d], for the setting “read-out: I50 (μM) ^ab”, the IC50 worked out at 58.6 ± 8.67 µM.

In the case of `CC1(C)CC(=O)C(C(=O)C=Cc2cccc(Br)c2)C(=O)C1` [18b], the IC50 (read-out: I50 (μM) ^ab) was determined as 2.42 ± 0.25 µM.

Consider `Cc1ccccc1C=CC(=O)C1C(=O)CC(C)(C)CC1=O` [9c], for which, where the note is “read-out: I50 (μM) ^ab”, the IC50 amounted to 28.7 ± 8.7 µM.

On to `CC(=O)C1=C(O)C(O)CCC1=O` (stereo not shown) [1d], for which the IC50 (read-out: I50 (μM) ^ab) was more than 1000 µM.

For `CCCCCCCCCCCC(=O)C1C(=O)CC(C)(C)CC1=O` [5f], where the note is “read-out: I50 (μM) ^ab”, the IC50 came to 0.77 ± 0.11 µM.

Take `CCCCCC(=O)C1C(=O)CCCC1=O` [3b]: the IC50 (read-out: I50 (μM) ^ab) amounted to 2.93 ± 0.47 µM.

Regarding `CCCC(=O)C1C(=O)CC(C)(C)CC1=O` [2b], the IC50 (read-out: I50 (μM) ^ab) was found to be 16.6 ± 4.36 µM.

Take `O=C(/C=C/c1ccccc1)C1=C(O)C(O)CCC1=O` (stereo not shown) [8c]: the IC50 (read-out: I50 (μM) ^ab) was found to be 59 ± 3.16 µM.

In the case of `COc1cccc(C=CC(=O)C2C(=O)CC(C)(C)CC2=O)c1` [10c], the IC50 (read-out: I50 (μM) ^ab) was 6.4 ± 1.2 µM.

Regarding `COc1cc(C=CC(=O)C2C(=O)CCCC2=O)cc(OC)c1OC` [14a], under “read-out: I50 (μM) ^ab”, the IC50 was 2.06 ± 0.13 µM.

In the case of `O=C1CCCC(=O)C1C(=O)CCc1ccccc1` [8b], the IC50 (read-out: I50 (μM) ^ab) turned out to be 1.27 ± 0.09 µM.

Take `CCCCCCCCCCCC(=O)C1=C(O)C(O)CCC1=O` (stereo not shown) [5d]: the IC50 (read-out: I50 (μM) ^ab) stood at 0.18 ± 0.02 µM.
